# Measurements as given in PubChem BioAssay (NCI).
#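 Cultured in 96-well plates, cells were exposed to test compound for 48 hours across five concentrations. At the TGI there is no net growth.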
# What was measured:
# Experiment in all cases: NCI-60 cell line screen, 48 h
# A549 NSCLC = tested on: A549 NSCLC
# HL-60(TB) leukemia = tested on: HL-60(TB) leukemia
# K-562 leukemia = tested on: K-562 leukemia
# KM12 colon = tested on: KM12 colon
# RPMI-8226 leukemia = tested on: RPMI-8226 leukemia
# SK-MEL-2 melanoma = tested on: SK-MEL-2 melanoma
# SR leukemia = tested on: SR leukemia
# SW-620 colon = tested on: SW-620 colon
# U251 CNS = tested on: U251 CNS
# UACC-62 melanoma = tested on: UACC-62 melanoma
compound,measurement,setting,value
O=C1CC(c2cccc(Cl)c2)n2cccc21 (stereo not given),TGI,A549 NSCLC,> 100 µM
same,TGI,HL-60(TB) leukemia,92.7 µM
same,TGI,K-562 leukemia,> 100 µM
same,TGI,KM12 colon,> 100 µM
same,TGI,RPMI-8226 leukemia,> 100 µM
same,TGI,SK-MEL-2 melanoma,> 100 µM
same,TGI,SR leukemia,> 100 µM
same,TGI,SW-620 colon,> 100 µM
same,TGI,U251 CNS,> 100 µM
same,TGI,UACC-62 melanoma,> 100 µM
COc1cc2c(cc1OCCCC(=O)Nc1cc(C(=O)Nc3cc(C(=O)NCCCN(C)C)n(C)n3)n(C)n1)N=CC1CCCN1C2=O (stereo not given),TGI,A549 NSCLC,> 100 µM
same,TGI,HL-60(TB) leukemia,32.1 µM
same,TGI,K-562 leukemia,27.7 µM
same,TGI,KM12 colon,> 100 µM
same,TGI,RPMI-8226 leukemia,40.3 µM
same,TGI,SK-MEL-2 melanoma,31.2 µM
same,TGI,SR leukemia,26.7 µM
same,TGI,SW-620 colon,29.2 µM
same,TGI,U251 CNS,39.5 µM
same,TGI,UACC-62 melanoma,57.3 µM
Cn1c(N/N=C/c2ccc(Cl)cc2)nc(-c2ccc(Cl)cc2)c(C#N)c1=O,TGI,A549 NSCLC,39.2 µM
same,TGI,HL-60(TB) leukemia,> 100 µM
same,TGI,K-562 leukemia,> 100 µM
same,TGI,KM12 colon,57.6 µM
same,TGI,RPMI-8226 leukemia,> 100 µM
same,TGI,SK-MEL-2 melanoma,33.1 µM
same,TGI,SR leukemia,> 100 µM
same,TGI,SW-620 colon,> 100 µM
same,TGI,U251 CNS,72.1 µM
same,TGI,UACC-62 melanoma,48.4 µM
CN(C)CCOc1ccc(-c2c(Oc3ccc(Cl)cc3)c(=O)oc3ccccc23)cc1,TGI,A549 NSCLC,> 32.5 µM
same,TGI,HL-60(TB) leukemia,> 100 µM
same,TGI,K-562 leukemia,> 60 µM
same,TGI,KM12 colon,48.1 µM
same,TGI,RPMI-8226 leukemia,43.6 µM
same,TGI,SK-MEL-2 melanoma,22.6 µM
same,TGI,SR leukemia,> 30.6 µM
same,TGI,SW-620 colon,> 62 µM
same,TGI,U251 CNS,> 32.9 µM
same,TGI,UACC-62 melanoma,32.1 µM
Cc1nn(-c2ccccc2)c(C)c1/C=N/NC(=O)c1sc(=S)n(-c2ccccc2)c1N,TGI,A549 NSCLC,34.8 µM
same,TGI,HL-60(TB) leukemia,> 100 µM
same,TGI,K-562 leukemia,> 100 µM
same,TGI,KM12 colon,> 100 µM
same,TGI,RPMI-8226 leukemia,31.2 µM
same,TGI,SK-MEL-2 melanoma,> 100 µM
same,TGI,SR leukemia,> 100 µM
same,TGI,SW-620 colon,> 100 µM
same,TGI,U251 CNS,> 100 µM
same,TGI,UACC-62 melanoma,> 100 µM
CC1CC[C@]2(C(=O)O)CCC3(C)C(=C2[C@H]1C)C=CC1[C@@]2(C)CC[C@H](O)C(C)(C)C2CC[C@]13C (stereo not given in full),TGI,A549 NSCLC,62.6 µM
same,TGI,HL-60(TB) leukemia,> 100 µM
same,TGI,K-562 leukemia,> 100 µM
same,TGI,KM12 colon,> 100 µM
same,TGI,RPMI-8226 leukemia,> 100 µM
same,TGI,SK-MEL-2 melanoma,> 100 µM
same,TGI,SR leukemia,66.1 µM
same,TGI,SW-620 colon,> 100 µM
same,TGI,U251 CNS,97.7 µM
same,TGI,UACC-62 melanoma,> 100 µM
OC1CN=C2c3ccccc3C(O)(c3ccc(Cl)cc3)N2C1 (stereo not given),TGI,A549 NSCLC,> 100 µM
same,TGI,HL-60(TB) leukemia,> 100 µM
same,TGI,K-562 leukemia,> 100 µM
same,TGI,KM12 colon,> 100 µM
same,TGI,RPMI-8226 leukemia,> 100 µM
same,TGI,SK-MEL-2 melanoma,> 100 µM
same,TGI,SR leukemia,> 100 µM
same,TGI,SW-620 colon,> 100 µM
same,TGI,U251 CNS,> 100 µM
same,TGI,UACC-62 melanoma,> 100 µM
O=C(c1ccco1)N(C(=S)N1CCN(c2ccccc2)CC1)c1ccccc1,TGI,A549 NSCLC,> 100 µM
same,TGI,HL-60(TB) leukemia,> 100 µM
same,TGI,K-562 leukemia,> 100 µM
same,TGI,KM12 colon,> 100 µM
same,TGI,RPMI-8226 leukemia,> 100 µM
same,TGI,SK-MEL-2 melanoma,> 100 µM
same,TGI,SR leukemia,> 100 µM
same,TGI,SW-620 colon,> 100 µM
same,TGI,U251 CNS,> 100 µM
same,TGI,UACC-62 melanoma,> 100 µM
